Test results: US10392404B2, “Compounds and compositions as kinase inhibitors” (NOVARTIS AG, priority 2014, dated 2019)

Legend:
C-RAF = biological target: T1, C-RAF (Homo sapiens, UniProt P04049, Y340E/Y341E); test: In vitro Raf activity determination (Alpha Screen, biotinylated kinase-dead MEK1 substrate), C-Raf; assay type: biochemical; settings: c-Raf approximately 4 nM; ATP 1 μM; pre-incubation 60 minutes; reaction 1 hour at room temperature
T1 construct: His tag (implied by nickel chromatography) (cleaved yes); StrepII tag (cleaved yes); made in house; host or cells: Sf9 insect cells (baculovirus), CRAF and h14-3-3 zeta co-expressed; MEK1 substrate from E. coli
T1 sequence (P04049 whole entry Y340E/Y341E): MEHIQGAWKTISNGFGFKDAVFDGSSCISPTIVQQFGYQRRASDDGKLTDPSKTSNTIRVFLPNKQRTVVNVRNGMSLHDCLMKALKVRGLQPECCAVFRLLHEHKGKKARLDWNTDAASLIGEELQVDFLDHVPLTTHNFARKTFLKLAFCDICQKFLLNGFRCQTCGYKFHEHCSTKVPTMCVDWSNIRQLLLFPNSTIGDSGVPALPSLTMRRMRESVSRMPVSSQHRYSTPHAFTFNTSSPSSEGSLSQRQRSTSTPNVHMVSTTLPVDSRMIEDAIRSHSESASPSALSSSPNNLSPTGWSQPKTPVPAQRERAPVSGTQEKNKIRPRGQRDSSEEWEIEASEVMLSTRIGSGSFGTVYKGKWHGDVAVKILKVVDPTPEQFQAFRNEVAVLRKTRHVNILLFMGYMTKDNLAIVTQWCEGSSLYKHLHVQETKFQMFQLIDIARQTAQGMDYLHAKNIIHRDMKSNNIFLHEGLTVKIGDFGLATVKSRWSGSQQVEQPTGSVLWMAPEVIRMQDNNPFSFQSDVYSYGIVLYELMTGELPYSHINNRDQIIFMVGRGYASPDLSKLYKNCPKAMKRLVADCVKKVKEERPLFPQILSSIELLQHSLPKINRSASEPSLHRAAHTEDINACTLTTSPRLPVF
T1 sequence (P63104 whole entry partner): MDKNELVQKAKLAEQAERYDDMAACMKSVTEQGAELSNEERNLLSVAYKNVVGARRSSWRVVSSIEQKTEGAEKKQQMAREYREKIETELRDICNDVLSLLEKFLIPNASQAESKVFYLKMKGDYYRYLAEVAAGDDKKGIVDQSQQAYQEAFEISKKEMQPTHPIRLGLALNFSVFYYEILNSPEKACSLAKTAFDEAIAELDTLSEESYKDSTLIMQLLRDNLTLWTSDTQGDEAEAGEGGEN
Text: CRAF cDNA was subcloned as full length protein, with Y340E and Y341E activating mutations, into a baculovirus expression vector for Sf9 insect cell expression. h14-3-3 zeta cDNA was subcloned into a baculovirus expression vector for SF9 insect cell expression. Sf9 cells co-expressing both proteins were lysed and subjected to immobilized nickel chromatography and eluted with Imidazole. A second column (StrepII binding column) was used and eluted with desthiobiotin. Protein Tags were removed using Prescission enzyme and the protein was further purified using a flowthrough step to remove tags.
C-Raf TR refers to a truncated C-Raf protein, a Δ1-324 deletion mutant. C-Raf FL refers to the full-length C-Raf protein.
(§1) Full length MEK1 with an inactivating K97R ATP binding site mutation is utilized as a RAF substrate. The MEK1 cDNA was subcloned with an N-terminal (his)6 tag into a vector for E. Coli expression. The MEK1 substrate was purified from E. Coli lysate by nickel affinity chromatography followed by anion exchange. The final MEK1 preparation was biotinylated (Pierce EZ-Link Sulfo-NHS-LC-Biotin) and concentrated.
(§2) Assay Materials: Assay buffer is 50 mM Tris, pH 7.5, 15 mM MgCl2, 0.01% Bovine Serum Albumin (BSA) and 1 mM dithiothreitol (DTT); Stop buffer is 60 mM ethylenediaminetetraacetic acid (EDTA) and 0.01% Tween® 20; b-Raf (V600E), active; biotinylated Mek, kinase dead; Alpha Screen detection kit (available from PerkinElmer™, #6760617R); Anti phospho-MEK1/2 (available from Cell Signaling Technology, Inc. #9121); 384 well low volume assay plates (White Greiner® plates).
(§3) Assay conditions: b-Raf (V600E) approximately 4 pM; c-Raf approximately 4 nM; biotinylated Mek, kinase dead approximately 10 nM; ATP 10 μM for BRAF (V600E) and 1 μM for CRAF; Pre-incubation time with compounds 60 minutes at room temperature; Reaction time 1 or 3 hours at room temperature.
(§4) Assay protocol: Raf and biotinylated Mek (kinase dead) were combined at 2× final concentrations in assay buffer (50 mM Tris, pH 7.5, 15 mM MgCl2, 0.01% BSA and 1 mM DTT) and dispensed […] per well in assay plates (Greiner white 384 well assay plates #781207) containing […] of 40× of a Raf kinase inhibitor test compound diluted in 100% DMSO. The plate was incubated for 60 minutes at room temperature. The Raf kinase activity reaction was started by the addition of […] per well of 2×ATP diluted in assay buffer. After 3 hours (b-Raf(V600E)) or 1 hour (c-Raf). The reactions were stopped and the phosphorylated product was measured using a rabbit anti-p-MEK (Cell Signaling, #9121) antibody and the Alpha Screen IgG (ProteinA) detection Kit (PerkinElmer #6760617R), by the addition of […] to the well of a mixture of the antibody (1:2000 dilution) and detection beads (1:2000 dilution of both beads) in Stop/bead buffer (25 mM EDTA, 50 mM Tris, pH 7.5, 0.01% Tween20). The additions were carried out under dark conditions to protect the detection beads from light. A lid was placed on top of the plate and incubated for 1 hour at room temperature, after which the luminescence was read on a PerkinElmer Envision instrument. The concentration of each compound for 50% inhibition (IC50) was calculated by non-linear regression using XL Fit data analysis software.

b-Raf (V600E) = biological target: T2, b-Raf (V600E) (Homo sapiens, UniProt P15056, V600E); test: In vitro Raf activity determination (Alpha Screen, biotinylated kinase-dead MEK1 substrate), B-Raf; assay type: biochemical; settings: b-Raf (V600E) approximately 4 pM; ATP 10 μM; pre-incubation 60 minutes; reaction 3 hours at room temperature
T2 construct: made in house
T2 sequence (P15056 whole entry V600E): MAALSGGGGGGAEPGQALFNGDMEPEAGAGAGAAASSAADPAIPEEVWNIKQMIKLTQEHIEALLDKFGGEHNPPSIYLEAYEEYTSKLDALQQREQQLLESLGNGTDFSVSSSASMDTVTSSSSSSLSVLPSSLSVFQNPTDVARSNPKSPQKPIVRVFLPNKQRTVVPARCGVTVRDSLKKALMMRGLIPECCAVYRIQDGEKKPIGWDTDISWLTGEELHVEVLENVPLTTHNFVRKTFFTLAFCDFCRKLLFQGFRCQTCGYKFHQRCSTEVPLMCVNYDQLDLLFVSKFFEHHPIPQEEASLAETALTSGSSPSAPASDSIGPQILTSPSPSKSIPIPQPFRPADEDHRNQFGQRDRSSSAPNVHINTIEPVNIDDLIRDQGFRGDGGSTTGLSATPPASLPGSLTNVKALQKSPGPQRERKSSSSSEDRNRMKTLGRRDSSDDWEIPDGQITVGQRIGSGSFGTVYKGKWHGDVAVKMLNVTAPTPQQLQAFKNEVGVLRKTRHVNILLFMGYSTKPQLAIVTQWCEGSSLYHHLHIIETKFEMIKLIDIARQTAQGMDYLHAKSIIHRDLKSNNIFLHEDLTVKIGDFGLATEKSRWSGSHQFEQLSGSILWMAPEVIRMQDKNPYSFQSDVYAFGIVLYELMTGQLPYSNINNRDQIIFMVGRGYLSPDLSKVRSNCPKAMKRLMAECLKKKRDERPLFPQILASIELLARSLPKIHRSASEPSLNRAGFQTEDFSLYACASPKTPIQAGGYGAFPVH
Protocol: as §1, §2, §3, §4

IC50 (C-RAF) [nM] | IC50 (b-Raf (V600E)) [nM] | Compound
0.353 | 1.41 | Cc1ccc(NC(=O)c2ccnc(C(C)(C)C#N)c2)cc1-c1cnc(N2CCNCC2)c(C#N)c1 [Example 151, N-(3-(5-cyano-6-(piperazin-1-yl)pyridin-3-yl)-4-methylphenyl)-2-(2-cyanopropan-2-yl)isonicotinamide]
0.157 | 1.59 | Cc1ccc(NC(=O)c2ccnc(C(F)F)c2)cc1-c1cnc(N2CCNCC2)c(C#N)c1 [Example 160, N-(3-(5-cyano-6-(piperazin-1-yl)pyridin-3-yl)-4-methylphenyl)-2-(difluoromethyl) isonicotinamide]
0.304 | 1 | Cc1ncc(NC(=O)c2cc(C(F)(F)F)ccn2)cc1-c1cnc(N2CCOCC2)c(C#N)c1 [Example 223, N-(5′-cyano-2-methyl-6′-morpholino-[3,3′-bipyridin]-5-yl)-4-(trifluoromethyl) picolinamide]
196 | 1660 | Cc1ncc(NC(=O)c2cc(C(F)(F)F)nn2C)cc1-c1cnc(N(C)C)c(C#N)c1 [Example 267, N-(5′-cyano-6′-(dimethylamino)-2-methyl-[3,3′-bipyridin]-5-yl)-1-methyl-3-(trifluoromethyl)-1H-pyrazole-5-carboxamide]
0.691 | 4.73 | Cc1ccc(NC(=O)c2ccnc(C(F)F)c2)cc1-c1cnc(N2CC(C)(O)C2)c(C#N)c1 [Example 216, N-(3-(5-cyano-6-(3-hydroxy-3-methylazetidin-1-yl)pyridin-3-yl)-4-methylphenyl)-2-(difluoromethyl) isonicotinamide]
8.17 | 48.2 | COCCNc1ncc(-c2cc(NC(=O)c3cnnc(C(F)(F)F)c3)cnc2C)cc1C#N [Example 203, N-(5′-cyano-6′-((2-methoxyethyl)amino)-2-methyl-[3,3′-bipyridin]-5-yl)-6-(trifluoromethyl) pyridazine-4-carboxamide]
0.661 | 3.07 | Cc1ccc(NC(=O)c2ccnc(C(C)(C)C#N)c2)cc1-c1cnc(N)c(C#N)c1 [Example 2, N-(3-(6-amino-5-cyanopyridin-3-yl)-4-methylphenyl)-2-(2-cyanopropan-2-yl) isonicotinamide]
0.464 | 3.11 | Cc1ncc(NC(=O)c2ccnc(C(F)(F)F)c2)cc1-c1cnc(C2CCOCC2)c(C#N)c1 [Example 127, N-(5′-cyano-2-methyl-6′-(tetrahydro-2H-pyran-4-yl)-[3,3′-bipyridin]-5-yl)-2-(trifluoromethyl) isonicotinamide]
0.418 | 0.994 | Cc1ncc(NC(=O)c2ccnc(C(F)(F)F)c2)cc1-c1cnc(N2CCNCC2)c(C#N)c1 [Example 70, N-(5′-cyano-2-methyl-6′-(piperazin-1-yl)-[3,3′-bipyridin]-5-yl)-2-(trifluoromethyl) isonicotinamide]
0.594 | 3.16 | Cc1ncc(NC(=O)c2ccnc(C(F)(F)F)c2)cc1-c1cnc(-c2cccnc2)c(C#N)c1 [Example 104, N-(3′-cyano-2″- methyl-[3,2′:5′,3″- terpyridin]-5″-yl)-2-(trifluoromethyl) isonicotinamide]
0.886 | 3.07 | Cc1ccc(NC(=O)c2cnnc(C(C)(C)C#N)c2)cc1-c1cnc(N2CCNCC2)c(C#N)c1 [Example 211, N-(3-(5-cyano-6-(piperazin-1-yl)pyridin-3-yl)-4-methylphenyl)-6-(2-cyanopropan-2-yl)pyridazine-4-carboxamide]
0.777 | 4.17 | COCCNc1ncc(-c2cc(NC(=O)c3ccnc(C(C)(C)O)c3)ccc2C)cc1C#N [Example 209, N-(3-(5-cyano-6-((2-methoxyethyl)amino)pyridin-3-yl)-4-methylphenyl)-2-(2-hydroxypropan-2-yl)isonicotinamide]
4.21 | 22.5 | Cc1ncc(NC(=O)c2ccnc(C(C)(C)C#N)c2)cc1-c1cnc(-c2ccn(C)c(=O)c2)c(C#N)c1 [Example 103, N-(5′-cyano-1″,2-dimethyl-2″-oxo-1″,2″-dihydro-[3,3′:6′,4″- terpyridin]-5-yl)-2-(2-cyanopropan-2-yl)isonicotinamide]
0.487 | 1.44 | Cc1ccc(NC(=O)c2ccnc(C(C)(C)O)c2)cc1-c1cnc(NC2CCOCC2)c(C#N)c1 [Example 168, N-(3-(5-cyano-6-((tetrahydro-2H-pyran-4-yl)amino)pyridin-3-yl)-4-methylphenyl)-2-(2-hydroxypropan-2-yl)isonicotinamide]
1.95 | 11.1 | Cc1ccc(NC(=O)c2ccnc(C(C)(C)C#N)c2)cc1-c1cncc(C#N)c1 [Example 35, 2-(2-cyanopropan-2-yl)-N-(3-(5-cyanopyridin-3-yl)-4-methylphenyl) isonicotinamide]
0.367 | 1.08 | Cc1ccc(NC(=O)c2ccnc(C(C)(C)C#N)c2)cc1-c1cnc(NC2CCOCC2)c(C#N)c1 [Example 60, N-(3-(5-cyano-6-((tetrahydro-2H-pyran-4-yl)amino)pyridin-3-yl)-4-methylphenyl)-2-(2-cyanopropan-2-yl)isonicotinamide]
1.59 | 6.91 | Cc1ncc(NC(=O)c2ccnc(C(C)(C)O)c2)cc1-c1cnc(N2CCOCC2)c(C#N)c1 [Example 166, N-(5′-cyano-2-methyl-6′-morpholino-[3,3′-bipyridin]-5-yl)-2-(2-hydroxypropan-2-yl)isonicotinamide]
0.187 | 1.34 | Cc1ccc(NC(=O)c2cc(C(C)(C)C#N)ccn2)cc1-c1cnc(N2CCOCC2)c(C#N)c1 [Example 233, N-(3-(5-cyano-6-morpholinopyridin-3-yl)-4-methylphenyl)-4-(2-cyanopropan-2-yl)picolinamide]
7.28 | 59.7 | CCn1cc(C(=O)Nc2ccc(C)c(-c3cnc(N(C)C)c(C#N)c3)c2)c(C)n1 [Example 251, N-(3-(5-cyano-6-(dimethylamino)pyridin-3-yl)-4-methylphenyl)-1-ethyl-3-methyl-1H-pyrazole-4-carboxamide]
1.53 | 6.47 | Cc1ncc(NC(=O)c2ccnc(C(C)(C)C#N)c2)cc1-c1cnc(NC2CCOCC2)c(C#N)c1 [Example 72, N-(5′-cyano-2-methyl-6′-((tetrahydro-2H-pyran-4-yl)amino)-[3,3′-bipyridin]-5-yl)-2-(2-cyanopropan-2-yl)isonicotinamide]
2.09 | 8.66 | Cc1ncc(NC(=O)c2ccnc(C(C)(C)C#N)c2)cc1-c1cnc(N2CCCC2)c(C#N)c1 [Example 73, N-(5′-cyano-2-methyl-6′-(pyrrolidin-1-yl)-[3,3′-bipyridin]-5-yl)-2-(2-cyanopropan-2-yl)isonicotinamide]
0.153 | 1.16 | Cc1ncc(NC(=O)c2ccnc(C(F)F)c2)cc1-c1cnc(N2CCOCC2)c(C#N)c1 [Example 136, N-(5′-cyano-2-methyl-6′-morpholino-[3,3′-bipyridin]-5-yl)-2-(difluoromethyl) isonicotinamide]
0.211 | 1.63 | Cc1ncc(NC(=O)c2cccc(C(F)(F)F)c2)cc1-c1cnc(N)c(C#N)c1 [Example 4, N-(6′-amino-5′-cyano-2-methyl-[3,3′-bipyridin]-5-yl)-3-(trifluoromethyl) benzamide]
